Test results: ChEMBL document CHEMBL5113403, “Design, synthesis, and biological evaluation of novel pyrazolo [3,4-d]pyrimidine derivatives as potent PLK4 inhibitors for the treatment of TRIM37-amplified breast cancer” (Eur J Med Chem, 2022)

Legend:
[1] = molecular target: T1, Serine/threonine-protein kinase PLK4 (Homo sapiens, UniProt O00444); assay: Inhibition of recombinant human PLK4 incubated for 60 mins by Lanthascreen Eu kinase binding assay
T1 sequence (O00444 whole entry): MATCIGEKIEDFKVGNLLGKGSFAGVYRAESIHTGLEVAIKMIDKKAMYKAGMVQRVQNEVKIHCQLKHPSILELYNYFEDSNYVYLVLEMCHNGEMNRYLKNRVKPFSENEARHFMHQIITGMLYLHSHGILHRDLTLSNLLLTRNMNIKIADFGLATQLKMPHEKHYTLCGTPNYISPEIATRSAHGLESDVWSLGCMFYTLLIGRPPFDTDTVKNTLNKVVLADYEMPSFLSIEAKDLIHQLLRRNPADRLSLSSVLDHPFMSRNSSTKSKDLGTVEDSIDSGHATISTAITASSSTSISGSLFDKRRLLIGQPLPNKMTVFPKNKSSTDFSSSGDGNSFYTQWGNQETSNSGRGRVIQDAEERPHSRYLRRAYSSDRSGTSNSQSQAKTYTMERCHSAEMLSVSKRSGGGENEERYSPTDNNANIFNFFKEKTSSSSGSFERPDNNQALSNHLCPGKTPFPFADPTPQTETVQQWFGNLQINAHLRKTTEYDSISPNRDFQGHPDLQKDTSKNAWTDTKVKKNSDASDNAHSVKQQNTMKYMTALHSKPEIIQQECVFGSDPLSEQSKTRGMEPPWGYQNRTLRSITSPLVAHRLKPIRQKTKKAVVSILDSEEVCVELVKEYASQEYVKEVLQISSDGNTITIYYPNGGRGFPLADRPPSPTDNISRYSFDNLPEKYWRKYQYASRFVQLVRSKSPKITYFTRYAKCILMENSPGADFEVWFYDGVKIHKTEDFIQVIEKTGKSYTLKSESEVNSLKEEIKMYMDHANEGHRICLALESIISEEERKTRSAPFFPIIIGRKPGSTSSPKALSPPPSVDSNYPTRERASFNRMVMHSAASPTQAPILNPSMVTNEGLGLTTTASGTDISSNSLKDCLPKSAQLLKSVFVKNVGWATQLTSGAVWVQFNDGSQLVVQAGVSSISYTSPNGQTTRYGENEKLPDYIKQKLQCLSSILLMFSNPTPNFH

[2] = molecular target: Serine/threonine-protein kinase PAK 4 (Homo sapiens, UniProt O96013); assay: Inhibition of PAK4 (unknown origin) incubated for 60 mins by time-resolved HTRF assay
Chain of Serine/threonine-protein kinase PAK 4 (O96013 whole entry): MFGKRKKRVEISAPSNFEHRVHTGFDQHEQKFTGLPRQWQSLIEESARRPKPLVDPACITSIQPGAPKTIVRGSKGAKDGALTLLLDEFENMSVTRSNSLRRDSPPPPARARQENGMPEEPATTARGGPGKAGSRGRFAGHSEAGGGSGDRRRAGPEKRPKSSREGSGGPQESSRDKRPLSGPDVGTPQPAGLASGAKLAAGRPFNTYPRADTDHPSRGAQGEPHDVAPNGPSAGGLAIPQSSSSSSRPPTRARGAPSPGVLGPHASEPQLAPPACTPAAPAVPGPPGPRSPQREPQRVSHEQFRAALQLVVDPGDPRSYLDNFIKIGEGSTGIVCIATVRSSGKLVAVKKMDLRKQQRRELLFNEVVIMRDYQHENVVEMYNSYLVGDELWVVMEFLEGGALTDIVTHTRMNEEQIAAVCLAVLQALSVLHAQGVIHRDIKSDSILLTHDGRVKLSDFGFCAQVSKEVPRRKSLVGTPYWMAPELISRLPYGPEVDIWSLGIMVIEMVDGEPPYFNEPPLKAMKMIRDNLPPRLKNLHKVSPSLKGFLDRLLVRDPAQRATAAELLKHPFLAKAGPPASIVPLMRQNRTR

[3] = test system: MDA-MB-231; assay: Antiproliferative activity against human MDA-MB-231 cells assessed as cell growth inhibition incubated for 5 days by MTT assay; assay type: functional, cell-based; settings: MDA-MB-231, 120 h
[4] = test system: MCF7; assay: Antiproliferative activity against human MCF7 cells assessed as cell growth inhibition incubated for 5 days by MTT assay; assay type: functional, cell-based; settings: MCF7, 120 h
[5] = test system: BT-474; assay: Antiproliferative activity against human BT-474 cells assessed as cell growth inhibition incubated for 5 days by MTT assay; assay type: functional, cell-based; settings: BT-474, 120 h
[6] = molecular target: CYP2D6 (Homo sapiens, UniProt P10635); assay: Inhibition of CYP2D6 in human liver microsomes at 10 uM preincubated for 10 mins followed by addition of NADPH-regenerating system and measured after 15 mins by LC-MS/MS analysis relative to control; assay type: ADME, Microsome; settings: time 25 min
Chain of CYP2D6 (P10635 whole entry): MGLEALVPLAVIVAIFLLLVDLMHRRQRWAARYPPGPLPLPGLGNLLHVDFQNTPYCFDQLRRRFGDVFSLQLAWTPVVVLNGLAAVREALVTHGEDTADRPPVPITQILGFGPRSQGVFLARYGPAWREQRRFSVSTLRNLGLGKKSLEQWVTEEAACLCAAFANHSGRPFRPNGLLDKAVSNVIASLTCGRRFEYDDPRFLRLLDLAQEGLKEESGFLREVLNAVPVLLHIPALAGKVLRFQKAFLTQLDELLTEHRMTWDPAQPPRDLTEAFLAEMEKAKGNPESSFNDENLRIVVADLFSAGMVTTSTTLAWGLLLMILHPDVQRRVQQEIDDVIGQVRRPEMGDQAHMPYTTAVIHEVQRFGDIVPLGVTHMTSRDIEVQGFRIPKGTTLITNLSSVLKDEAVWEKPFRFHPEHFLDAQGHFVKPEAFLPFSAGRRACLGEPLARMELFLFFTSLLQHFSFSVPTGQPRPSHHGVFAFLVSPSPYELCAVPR

[7] = molecular target: CYP2C9 (Homo sapiens, UniProt P11712); assay: Inhibition of CYP2C9 in human liver microsomes at 10 uM preincubated for 10 mins followed by addition of NADPH-regenerating system and measured after 15 mins by LC-MS/MS analysis relative to control; assay type: ADME, Microsome; settings: time 25 min
Chain of CYP2C9 (P11712 whole entry): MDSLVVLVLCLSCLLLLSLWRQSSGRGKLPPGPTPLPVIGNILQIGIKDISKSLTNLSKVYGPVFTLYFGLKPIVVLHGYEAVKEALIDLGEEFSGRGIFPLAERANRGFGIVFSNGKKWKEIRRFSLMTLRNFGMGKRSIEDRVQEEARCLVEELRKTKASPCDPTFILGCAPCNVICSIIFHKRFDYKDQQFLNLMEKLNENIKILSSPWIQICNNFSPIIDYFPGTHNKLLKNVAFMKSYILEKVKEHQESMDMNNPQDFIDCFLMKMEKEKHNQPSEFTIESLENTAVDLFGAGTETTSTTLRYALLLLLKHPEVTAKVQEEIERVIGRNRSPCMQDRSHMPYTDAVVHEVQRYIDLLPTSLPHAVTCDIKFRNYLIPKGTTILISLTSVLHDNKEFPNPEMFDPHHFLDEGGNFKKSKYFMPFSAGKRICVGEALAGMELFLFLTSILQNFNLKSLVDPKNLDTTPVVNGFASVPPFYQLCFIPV

Cc1cc(Nc2nc(Cl)nc3[nH]ncc23)n[nH]1
IC50 [1]: 0.489 µM
IC50 [2]: 5.94 µM

Cc1cc(Nc2nc(NCc3ccc(Br)cc3)nc3[nH]ncc23)n[nH]1
IC50 [3]: 1.86 µM
IC50 [4]: 5.34 µM
IC50 [5]: 4.11 µM
IC50 [1]: 0.0056 µM
IC50 [2]: 1.32 µM

Fc1ccc(-c2cc(Nc3nc(NCc4ccc(F)cc4F)nc4c3cnn4C3CCOCC3)n[nH]2)cc1
IC50 [1]: 1.29 µM

Fc1ccc(CNc2nc(Nc3cc(-c4ccccc4)[nH]n3)c3cnn(C4CCOCC4)c3n2)c(F)c1
IC50 [1]: 0.969 µM

Cc1cc(Nc2nc(NCc3cccc(Cl)c3)nc3[nH]ncc23)n[nH]1
IC50 [3]: 6.86 µM
IC50 [4]: 5.62 µM
IC50 [5]: 12.8 µM
IC50 [1]: 0.0055 µM
IC50 [2]: 0.611 µM

Cc1cc(Nc2nc(NCc3c(F)cc(F)cc3F)nc3[nH]ncc23)n[nH]1
IC50 [1]: 0.0785 µM

CC(C)(C)c1cc(Nc2nc(NCc3ccc(F)cc3F)nc3c2cnn3C2CCOCC2)n[nH]1
IC50 [1]: 0.726 µM

Cc1cc(Nc2nc(NCc3ccc(F)cc3F)nc3c2cnn3CC(C)(C)O)n[nH]1
IC50 [3]: 2.51 µM
IC50 [4]: 0.16 µM
IC50 [5]: 19.4 µM
IC50 [1]: 0.0027 µM
IC50 [2]: 0.655 µM

Cc1cc(Nc2nc(NCc3ccccc3Br)nc3[nH]ncc23)n[nH]1
IC50 [3]: 3.99 µM
IC50 [4]: 14.1 µM
IC50 [5]: 10.1 µM
IC50 [1]: 0.0087 µM
IC50 [2]: 1.09 µM

Cc1cc(Nc2nc(NC3CCNC3)nc3[nH]ncc23)n[nH]1 (centres undefined)
IC50 [1]: 0.454 µM
IC50 [2]: 1.05 µM

Fc1ccc(CNc2nc(Nc3cc(C4CC4)[nH]n3)c3cnn(C4CCOCC4)c3n2)c(F)c1
IC50 [3]: 2.56 µM
IC50 [4]: 2.48 µM
IC50 [5]: 7.24 µM
IC50 [1]: 0.0018 µM

Cc1cc(Nc2nc(NCc3ccc(F)cc3F)nc3c2cnn3C)n[nH]1
IC50 [1]: 0.0175 µM

Cc1cc(Nc2nc(NCc3ccc(Cl)cc3)nc3c2cnn3C2CCOCC2)n[nH]1
IC50 [3]: 9.42 µM
IC50 [4]: 1.55 µM
IC50 [5]: 18.3 µM
IC50 [1]: 0.004 µM

Cc1cc(Nc2nc(NCc3ccc(F)c(F)c3)nc3[nH]ncc23)n[nH]1
IC50 [1]: 0.0222 µM

Cc1cc(Nc2nc(NCc3ccc(F)cc3)nc3[nH]ncc23)n[nH]1
IC50 [3]: 8.41 µM
IC50 [4]: 0.97 µM
IC50 [5]: 8.75 µM
IC50 [1]: 0.0008 µM
IC50 [2]: 0.395 µM

Cc1cc(Nc2nc(NCc3cccc(Br)c3)nc3[nH]ncc23)n[nH]1
IC50 [1]: 0.0233 µM
IC50 [2]: 4.34 µM

Cc1cc(Nc2nc(NCc3ccc(C#N)cc3)nc3[nH]ncc23)n[nH]1
IC50 [3]: 1.36 µM
IC50 [4]: 6.06 µM
IC50 [5]: 12.1 µM
IC50 [1]: 0.0105 µM

Cc1cnc(Nc2nc(NCc3ccc(F)cc3F)nc3c2cnn3C2CCOCC2)s1
IC50 [1]: 0.0207 µM

Cc1cc(Nc2nc(Nc3ccccc3)nc3[nH]ncc23)n[nH]1
IC50 [1]: 0.206 µM
IC50 [2]: 5.9 µM

Cc1cc(Nc2nc(NCc3ccc(Cl)cc3)nc3c2cnn3CC(F)(F)F)n[nH]1
IC50 [1]: 0.118 µM

COc1c(Nc2cc(C)[nH]n2)nc(Sc2ccc(S(=O)(=O)Cc3cccc([N+](=O)[O-])c3F)cc2F)nc1N1CCOCC1
IC50 [3]: 8.69 µM
IC50 [4]: 2.27 µM
IC50 [5]: 10.5 µM

Cc1cc(Nc2nc(NCc3ccc(Cl)cc3)nc3c2cnn3C2CCCCC2)n[nH]1
IC50 [1]: 0.0479 µM

CCc1cc(Nc2nc(NCc3ccc(F)cc3F)nc3c2cnn3C2CCOCC2)n[nH]1
IC50 [3]: 2.79 µM
IC50 [4]: 1.79 µM
IC50 [5]: 3.06 µM
IC50 [1]: 0.0007 µM

Cc1cc(Nc2nc(NCc3ccc(Cl)cc3)nc3c2cnn3-c2ccc(F)cc2)n[nH]1
IC50 [1]: 0.241 µM

Cc1cc(Nc2nc(NCc3ccc(Cl)cc3)nc3c2cnn3CC(C)(C)O)n[nH]1
IC50 [3]: 3.98 µM
IC50 [4]: 1.94 µM
IC50 [5]: 16.2 µM
IC50 [1]: 0.0038 µM

Fc1ccc(CNc2nc(Nc3n[nH]c4ccc(Cl)cc34)c3cnn(C4CCOCC4)c3n2)c(F)c1
IC50 [1]: 3.18 µM

Cc1cc(Nc2nc(NCc3ccccc3F)nc3[nH]ncc23)n[nH]1
IC50 [3]: 9.85 µM
IC50 [4]: 2.31 µM
IC50 [5]: 13.2 µM
IC50 [1]: 0.001 µM
IC50 [2]: 0.389 µM

Cc1cc(Nc2nc(NCc3ccc(Cl)cc3)nc3c2cnn3C)n[nH]1
IC50 [1]: 0.0202 µM

Cc1cc(Nc2nc(NCc3ccc(F)cc3F)nc3[nH]ncc23)n[nH]1
IC50 [3]: 2.67 µM
IC50 [4]: 0.67 µM
IC50 [5]: 3.22 µM
IC50 [1]: 0.0001 µM
IC50 [2]: 0.0961 µM

Cc1cc(Nc2nc(NCc3ccc(F)cc3F)nc3c2cnn3C(C)C)n[nH]1
IC50 [3]: 5.35 µM
IC50 [4]: 4.32 µM
IC50 [5]: 17.3 µM
IC50 [1]: 0.0011 µM

Cc1cc(Nc2nc(NCc3ccc(F)cc3F)nc3c2cnn3C2CCNCC2)n[nH]1
IC50 [3]: 1.08 µM
IC50 [4]: 0.41 µM
IC50 [5]: 2.97 µM
IC50 [1]: 0.0007 µM
IC50 [2]: 0.231 µM

Cc1cc(Nc2nc(N3CCNCC3)nc3[nH]ncc23)n[nH]1
IC50 [1]: 0.533 µM
IC50 [2]: 1.5 µM

C=C[C@H]1C[N@@]2CC[C@H]1C[C@@H]2[C@@H](O)c1ccnc2ccc(OC)cc12 [QUINIDINE]
inhibition at 0.25 h, 10 µM [6]: 95.9%

Fc1ccc(CNc2nc(Nc3n[nH]c4ccccc34)c3cnn(C4CCOCC4)c3n2)c(F)c1
IC50 [1]: 0.536 µM

Cc1cc(Nc2nc(NCc3cccc(F)c3)nc3[nH]ncc23)n[nH]1
IC50 [1]: 0.0146 µM
IC50 [2]: 0.458 µM

Cc1cc(Nc2nc(NCc3ccc(Cl)cc3)nc3c2cnn3C2CCNCC2)n[nH]1
IC50 [3]: 3.22 µM
IC50 [4]: 0.79 µM
IC50 [5]: 2.35 µM
IC50 [1]: 0.007 µM

Cc1cc(Nc2nc(NCc3ccc(Cl)cc3)nc3c2cnn3C(C)C)n[nH]1
IC50 [3]: 4.86 µM
IC50 [4]: 2.04 µM
IC50 [5]: 13 µM
IC50 [1]: 0.0037 µM

Nc1ccc(S(=O)(=O)Nc2ccnn2-c2ccccc2)cc1 [SULFAPHENAZOLE]
inhibition at 0.25 h, 10 µM [7]: 81.4%

Cc1cc(Nc2nc(NCc3ccc(Cl)cc3)nc3[nH]ncc23)n[nH]1
IC50 [3]: 7.5 µM
IC50 [4]: 0.86 µM
IC50 [5]: 11.7 µM
IC50 [1]: 0.0003 µM
IC50 [2]: 0.515 µM

Cc1cc(Nc2nc(NCc3ccc(F)cc3F)nc3c2cnn3C2CCCCC2)n[nH]1
IC50 [3]: 2.96 µM
IC50 [4]: 0.81 µM
IC50 [5]: 6.23 µM
IC50 [1]: 0.0079 µM

Cc1cc(Nc2nc(NCc3ccccc3Cl)nc3[nH]ncc23)n[nH]1
IC50 [3]: 4.21 µM
IC50 [4]: 4.13 µM
IC50 [5]: 7.16 µM
IC50 [1]: 0.0007 µM
IC50 [2]: 0.668 µM

COc1ccc(CNc2nc(Nc3cc(C)[nH]n3)c3cn[nH]c3n2)cc1
IC50 [3]: 1.32 µM
IC50 [4]: 3.32 µM
IC50 [5]: 8.23 µM
IC50 [1]: 0.0065 µM

Cc1cc(Nc2nc(NC3CCNCC3)nc3[nH]ncc23)n[nH]1
IC50 [1]: 0.484 µM
IC50 [2]: 0.273 µM

Cc1cc(Nc2nc(NCc3ccccc3)nc3[nH]ncc23)n[nH]1
IC50 [1]: 0.0212 µM
IC50 [2]: 1.96 µM
